Experimental data published in patent US20220288052A1, “COMPOUND FOR COMBINATION TREATMENT” (priority 2019, published 2022).
Read-outs that look alike come from different tables or passages of the source.

Legend:
[1] = molecular target: NA transporter (Homo sapiens, UniProt P23975); test: ^3H-Nisoxetine binding, human
Description: Compound (I) has been characterized as a monoamine reuptake inhibitor, based on the profile in a series of functional assays (Table 2).

[2] = molecular target: Nicotinic α4β2 (Rattus norvegicus, UniProt P09483+P12390); test: In-house nicotinic binding assay, Nicotinic α4β2
Sequence of Nicotinic α4β2 (P09483 31-630): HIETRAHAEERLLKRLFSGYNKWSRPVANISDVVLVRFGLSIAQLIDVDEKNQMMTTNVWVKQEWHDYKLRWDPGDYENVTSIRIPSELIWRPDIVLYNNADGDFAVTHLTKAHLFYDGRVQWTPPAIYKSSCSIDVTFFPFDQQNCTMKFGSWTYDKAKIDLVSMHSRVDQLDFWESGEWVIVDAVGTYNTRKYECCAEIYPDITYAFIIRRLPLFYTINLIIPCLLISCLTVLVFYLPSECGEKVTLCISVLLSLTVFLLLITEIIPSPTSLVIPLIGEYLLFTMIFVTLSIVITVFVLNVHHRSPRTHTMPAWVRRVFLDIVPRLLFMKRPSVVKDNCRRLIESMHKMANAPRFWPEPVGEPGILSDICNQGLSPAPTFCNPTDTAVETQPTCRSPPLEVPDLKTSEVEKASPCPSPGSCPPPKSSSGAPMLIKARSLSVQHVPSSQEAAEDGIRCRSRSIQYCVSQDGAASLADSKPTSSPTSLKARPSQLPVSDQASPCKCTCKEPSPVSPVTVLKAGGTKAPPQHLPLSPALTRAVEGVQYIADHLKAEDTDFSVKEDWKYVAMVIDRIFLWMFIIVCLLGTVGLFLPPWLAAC
Sequence of Nicotinic α4β2 (P12390 25-500): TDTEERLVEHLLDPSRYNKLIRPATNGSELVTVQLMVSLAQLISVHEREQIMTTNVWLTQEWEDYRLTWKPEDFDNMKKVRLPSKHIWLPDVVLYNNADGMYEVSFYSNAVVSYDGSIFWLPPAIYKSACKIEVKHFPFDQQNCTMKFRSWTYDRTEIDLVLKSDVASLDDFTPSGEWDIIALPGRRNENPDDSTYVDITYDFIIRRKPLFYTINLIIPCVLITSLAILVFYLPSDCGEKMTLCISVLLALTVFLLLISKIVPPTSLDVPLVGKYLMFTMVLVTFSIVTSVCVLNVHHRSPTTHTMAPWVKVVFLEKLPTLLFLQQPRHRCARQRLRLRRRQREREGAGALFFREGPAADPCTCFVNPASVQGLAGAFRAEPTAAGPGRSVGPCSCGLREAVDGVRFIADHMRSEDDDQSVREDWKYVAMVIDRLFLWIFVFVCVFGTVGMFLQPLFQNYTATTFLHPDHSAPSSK

[3] = molecular target: Nicotinic α7 (Rattus norvegicus, UniProt Q05941); test: In-house nicotinic binding assay, Nicotinic α7
Sequence of Nicotinic α7 (Q05941 23-502): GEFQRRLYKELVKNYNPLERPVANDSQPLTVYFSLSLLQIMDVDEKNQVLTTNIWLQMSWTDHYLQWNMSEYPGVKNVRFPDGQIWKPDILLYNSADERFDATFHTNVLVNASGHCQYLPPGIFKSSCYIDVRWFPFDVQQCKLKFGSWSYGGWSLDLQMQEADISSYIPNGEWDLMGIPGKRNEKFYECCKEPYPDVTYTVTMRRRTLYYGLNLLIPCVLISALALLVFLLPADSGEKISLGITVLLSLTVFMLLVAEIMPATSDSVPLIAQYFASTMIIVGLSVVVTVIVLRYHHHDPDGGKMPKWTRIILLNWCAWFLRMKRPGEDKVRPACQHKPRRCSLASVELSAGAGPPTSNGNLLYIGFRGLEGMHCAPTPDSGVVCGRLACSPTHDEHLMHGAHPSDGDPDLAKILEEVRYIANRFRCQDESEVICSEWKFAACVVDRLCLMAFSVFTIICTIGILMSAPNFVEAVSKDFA

[4] = test system: brain levels of serotonin (5-HT); test: In vivo microdialysis, 5-HT; design: species or system rat
Protocol: The purpose of the present study was to examine, by in vivo microdialysis technique, the effects after administration of compound (I) on brain levels of serotonin, noradrenalin and dopamine within the ventral hippocampus (Hipp), prefrontal cortex (PFC), striatum (STR) and nucleus accumbens (N.Acc) of anaesthetized rats and mice. […] Compound (I) was tested following subcutaneous injections at dose levels between 0.25-30 mg/kg.

[5] = test system: brain levels of dopamine (DA); test: In vivo microdialysis, DA; design: species or system rat
Protocol: The purpose of the present study was to examine, by in vivo microdialysis technique, the effects after administration of compound (I) on brain levels of serotonin, noradrenalin and dopamine within the ventral hippocampus (Hipp), prefrontal cortex (PFC), striatum (STR) and nucleus accumbens (N.Acc) of anaesthetized rats and mice. Compound (I) represents dual acting serotonin/dopamine reuptake inhibitors and was tested in comparison to citalopram a selective serotonin uptake inhibitor. Compound (I) was tested following subcutaneous injections at dose levels between 0.25-30 mg/kg. […] Pre-treatment with the 5-HT1A autoreceptor antagonist WAY-100635 induced a further minor increase of the compound (I) (0.25 mg/kg) induced increase in the PFC level of 5-HT. […]

[6] = molecular target: T1, DA transporter (Mus musculus, UniProt Q61327); test: In vivo ^3H-WIN 35.428 binding (DA transporter occupancy), PD/PK
T1 construct: in vivo DAT transporter occupancy (open bars) in mouse striatum; from tissue; host or cells: mouse striatum (in vivo; C57 mice in the MPTP model)
T1 sequence (Q61327 whole entry): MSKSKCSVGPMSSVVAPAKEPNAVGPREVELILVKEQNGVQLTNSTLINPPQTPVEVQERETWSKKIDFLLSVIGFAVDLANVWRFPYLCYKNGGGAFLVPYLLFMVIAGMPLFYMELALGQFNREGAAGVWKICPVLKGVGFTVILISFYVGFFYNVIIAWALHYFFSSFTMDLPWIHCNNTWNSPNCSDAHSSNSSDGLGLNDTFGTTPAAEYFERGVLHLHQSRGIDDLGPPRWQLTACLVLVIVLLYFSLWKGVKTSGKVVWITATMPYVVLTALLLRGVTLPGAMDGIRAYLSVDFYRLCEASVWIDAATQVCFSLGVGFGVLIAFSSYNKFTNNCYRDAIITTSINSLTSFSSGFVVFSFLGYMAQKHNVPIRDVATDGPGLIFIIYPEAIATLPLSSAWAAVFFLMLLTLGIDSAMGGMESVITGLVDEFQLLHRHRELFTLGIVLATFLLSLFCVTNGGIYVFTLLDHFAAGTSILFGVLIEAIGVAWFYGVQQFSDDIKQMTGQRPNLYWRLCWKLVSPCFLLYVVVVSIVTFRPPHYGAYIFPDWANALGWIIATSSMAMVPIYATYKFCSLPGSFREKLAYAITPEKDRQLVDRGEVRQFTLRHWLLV
Protocol: The relationship between brain concentrations of compound (I) and transporter occupancy was investigated in in vivo ^3H-WIN 35.428 binding in mice. A relationship between increasing plasma and brain concentrations with each increase in dose level, and a corresponding increase in CNS in vivo DA transporter occupancy 90 min post administration. In both cases there was a close correlation between plasma and brain concentrations and in vivo transporter occupancy in brain, the brain to plasma ratio was approximately 4 at 3, 10 and 30 mg/kg (FIG. 1). […] The inhibition of in vivo WIN binding was measured 90 min after p.o. administration of the compound.
(§1) The in vivo receptor occupancy (RO %) of compound (I) was calculated at the MED values (DOSE) in mFST and in the mouse motility test using the formula RO % (estimated)=DOSE 100/(ED50+DOSE). The calculations were based on ED50 values in ex vivo uptake of 5-HT and NA and WIN in vivo binding.
It is known that the critical factor for psychomimetic side effects of a dopaminergic drug is the speed of inhibition of the DA transporter rather than the increase in DA release per se.

[7] = molecular target: T2, NA transporter (Mus musculus, UniProt O55192); test: Ex vivo NA uptake in mice
T2 construct: from tissue; host or cells: tissue of dosed animals (ex vivo)
T2 sequence (O55192 whole entry): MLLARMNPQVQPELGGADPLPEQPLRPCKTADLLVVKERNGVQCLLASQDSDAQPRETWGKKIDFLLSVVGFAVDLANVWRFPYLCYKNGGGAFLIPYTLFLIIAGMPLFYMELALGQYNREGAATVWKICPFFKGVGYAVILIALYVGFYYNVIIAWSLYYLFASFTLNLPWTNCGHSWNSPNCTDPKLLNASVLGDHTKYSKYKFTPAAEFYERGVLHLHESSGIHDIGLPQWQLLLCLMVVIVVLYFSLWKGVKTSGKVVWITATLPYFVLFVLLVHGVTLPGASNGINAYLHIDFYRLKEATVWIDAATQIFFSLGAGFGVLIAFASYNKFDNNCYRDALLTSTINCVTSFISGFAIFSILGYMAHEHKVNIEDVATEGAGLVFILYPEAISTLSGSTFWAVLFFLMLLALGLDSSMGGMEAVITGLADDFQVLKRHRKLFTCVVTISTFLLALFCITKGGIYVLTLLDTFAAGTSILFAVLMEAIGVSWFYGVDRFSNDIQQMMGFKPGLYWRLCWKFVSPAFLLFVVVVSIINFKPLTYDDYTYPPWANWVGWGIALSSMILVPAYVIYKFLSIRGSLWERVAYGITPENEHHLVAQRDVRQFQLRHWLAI
Protocol: as §1

[8] = test system: NMRI mice; test: Mouse stress-induced hyperthermia test (mSIH); assay type: in vivo
Protocol: FIG. 14: Stress-induced hyperthermia. When mice are confronted with a stress-full event, the body temperature rises.
Compound (I) was tested in three widely used behavioural screens for predicting anxiolytic effects in the clinic: the mouse marble burying test (mMB), mouse zero maze (mZM) and mouse stress-induced hyperthermia test (mSIH).

[9] = Linearity after single s.c. dose in rat; assay type: in vivo; settings: for AUC(0-inf) / Cmax / bioavailability / half-life: Wistar, rat; for AUC(0-inf) / Cmax / bioavailability / half-life / Tmax: plasma, sc; for half-life: read-out: T½ (converted); for Tmax: male Wistar rat, 5% Tween 80
[10] = molecular target: CYP 2C9 (Homo sapiens, UniProt P11712); test: CYP450 inhibition, cocktail of selective substrates, 2C9; assay type: in vitro ADME; settings: CYP 2C9, Tolbutamide to 4-hydroxytolbutamide; read-out: IC50 of compound (I)
Sequence of CYP 2C9 (P11712 whole entry): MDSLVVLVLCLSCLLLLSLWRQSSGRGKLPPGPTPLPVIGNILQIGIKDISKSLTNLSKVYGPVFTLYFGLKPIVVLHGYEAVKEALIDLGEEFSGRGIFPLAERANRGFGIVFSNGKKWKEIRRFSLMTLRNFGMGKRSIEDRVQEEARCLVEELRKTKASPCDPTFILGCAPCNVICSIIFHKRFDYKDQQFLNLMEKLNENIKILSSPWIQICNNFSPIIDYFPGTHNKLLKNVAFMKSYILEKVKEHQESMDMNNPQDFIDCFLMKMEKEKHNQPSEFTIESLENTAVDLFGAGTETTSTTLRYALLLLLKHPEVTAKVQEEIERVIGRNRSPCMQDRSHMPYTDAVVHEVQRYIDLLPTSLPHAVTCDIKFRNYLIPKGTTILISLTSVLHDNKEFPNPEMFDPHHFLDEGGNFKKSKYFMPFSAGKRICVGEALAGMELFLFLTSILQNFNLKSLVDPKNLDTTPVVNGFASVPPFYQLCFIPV
Protocol: Compound (I) was tested for CYP450 inhibition using a cocktail of selective substrates. […] This might be addressed later in a clinical study.

[11] = test system: plasma protein; test: Plasma protein binding by equilibrium dialysis, mouse; assay type: in vitro ADME
Protocol: (§2) The plasma protein binding was tested in rat, mouse, dog and human plasma by equilibrium dialysis. The plasma protein binding of this compound is remarkably low (Table 24).

[12] = test system: plasma protein; test: Plasma protein binding by equilibrium dialysis, dog; assay type: in vitro ADME
Protocol: as §2

[13] = beagle, dog, in vivo, iv
Protocol: Data presented are mean±s.e. mean where n=4 for all time points, excluding D2t7 where n=3, D3t7 where n=2, and D4t7 and D4t26 where no data was available. Animals received 1, 3, 10, and 30 mg/kg compound (I) as 4 intravenous infusions (starting at t0, D1t30, D2t30 and D3t30, respectively). Each dose was administered over 5 min, using an infusion pump, and the dose volume for each treatment was 2 ml/kg, with the exception of the fourth dose which was 3 ml/kg.
Data presented are mean±s.e. mean where n=4 for all time points, excluding D4t7 and D4t26 where no data was available. Animals received 1, 3, 10, and 30 mg/kg compound (I) as 4 intravenous infusions (starting at t0, D1t30, D2t30 and D3t30, respectively). Each dose was administered over 5 min, using an infusion pump, and the dose volume for each treatment was 2 ml/kg, with the exception of the fourth dose which was 3 ml/kg.

[14] = Bioavailability study in rat
[15] = Hippocampus, 3 mg/kg s.c., 3 mg/kg
[16] = Pre-frontal cortex, 1 mg/kg s.c., 1 mg/kg
[17] = Pre-frontal cortex, 10 mg/kg s.c., 10 mg/kg
[18] = Pre-frontal cortex, WAY100365 0.1 mg/kg + compound (I) 0.25 mg/kg
[19] = estimated at MED in mFST (NMRI mice), DOSE 1 mg/kg
[20] = estimated at MED in mMotility, DOSE 10 mg/kg

Sequence of NA transporter (Homo sapiens, UniProt P23975) (P23975 whole entry): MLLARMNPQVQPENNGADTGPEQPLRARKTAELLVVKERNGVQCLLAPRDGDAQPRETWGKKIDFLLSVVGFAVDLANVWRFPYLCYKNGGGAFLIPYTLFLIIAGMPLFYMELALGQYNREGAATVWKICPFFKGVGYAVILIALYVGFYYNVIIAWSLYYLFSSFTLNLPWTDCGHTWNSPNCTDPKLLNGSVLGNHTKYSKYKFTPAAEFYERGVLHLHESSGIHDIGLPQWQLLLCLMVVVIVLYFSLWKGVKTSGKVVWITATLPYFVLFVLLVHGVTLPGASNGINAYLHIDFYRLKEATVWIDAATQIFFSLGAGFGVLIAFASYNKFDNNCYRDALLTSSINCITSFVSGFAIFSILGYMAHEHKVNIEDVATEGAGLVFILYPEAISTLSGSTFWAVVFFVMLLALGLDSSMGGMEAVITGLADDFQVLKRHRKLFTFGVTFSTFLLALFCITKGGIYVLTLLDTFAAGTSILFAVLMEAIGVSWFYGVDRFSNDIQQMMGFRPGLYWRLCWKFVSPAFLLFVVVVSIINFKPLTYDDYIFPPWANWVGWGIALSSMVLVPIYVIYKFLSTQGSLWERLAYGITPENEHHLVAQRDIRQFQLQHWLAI

## O=c1ccc2ccc(O[C@@H]3C[C@H]4CC[C@@H](C3)N4)cc2o1 [Compound (I), exo-7-(8-aza-bicyclo[3.2.1]oct-3-yloxy)-chromen-2-one]
[1]
  Ki: 0.27 µM
[2]
  IC50: 31 µM
[3]
  IC50: > 10 µM
[4]; [15]
  5-HT (AUC0-160 min): 433±53%
[4]; N.Acc, 10 mg/kg s.c.
  5-HT (AUC0-160 min): 151 ± 17%
[4]; Pre-frontal cortex, 0.25 mg/kg s.c., 0.25 mg/kg
  5-HT (AUC0-160 min): 190±15%
[4]; [16]
  5-HT (AUC0-160 min): 252±48%
[4]; [17]
  5-HT (AUC0-160 min): 263±47%
[4]; [18]
  5-HT (AUC0-160 min): 253 ± 32%
[4]; Striatum, 3 mg/kg s.c.
  5-HT (AUC0-160 min): 138 ± 31%
[4]; Striatum, 10 mg/kg s.c.
  5-HT (AUC0-160 min): 170 ± 12%
[5]; [15]
  DA (AUC0-160 min): 142±36%
[5]; N.Acc, 10 mg/kg s.c., 10 mg/kg
  DA (AUC0-160 min): 192±42%
[5]; N.Acc, 30 mg/kg s.c., 30 mg/kg
  DA (AUC0-160 min): 604±88%
[5]; [16]
  DA (AUC0-160 min): 132±9%
[5]; [17]
  DA (AUC0-160 min): 211±40%
[5]; [18]
  DA (AUC0-160 min): 55 ± 2%
[5]; Striatum, 3 mg/kg s.c., 3 mg/kg
  DA (AUC0-160 min): 137±21%
[5]; Striatum, 10 mg/kg s.c., 10 mg/kg
  DA (AUC0-160 min): 134±43%
[5]; rats, 30 mg/kg s.c., compared to bupropion 10 mg/kg s.c. and cocaine 25 mg/kg i.p.
  Kinetic pattern of DA increase in microdialysis (nucleus accumbens): slower kinetic pattern
[6]; [19]
  DA RO %: 9%
[6]; [20]
  DA RO %: 50%
[6]; mice, 20 mg/kg p.o.
  In vivo WIN binding time course: slow onset of DA transporter blockade in vivo
[6]; mouse, brain, po, mice, 3, 10 and 30 mg/kg p.o., 90 min post administration, read-out: Brain to plasma ratio
  Kp at 1.5 h: ~4
[6]; mouse, po, read-out: ED50 in WIN in vivo binding in mice
  ED50: 9.9 mg/kg
[7]; [19]
  NA RO %: <1.9%
[7]; [20]
  NA RO %: <17%
[7]; mouse, po
  ED50: > 50 mg/kg
[8]; 0.1, 1 and 3 mg/kg per oral, NMRI mice
  Body temperature in resting conditions: did not change body temperature in resting conditions
[8]; 0.1, 1 and 3 mg/kg per oral, NMRI mice, all three doses
  Stress-induced temperature rise: temperature rise was significantly prevented
[8]; mSIH, p.o., −60 min
  MED: 0.3 mg/kg
[9]; 1 mg/kg s.c.
  AUC(0-inf): 125 ng·h/mL
  Cmax: 69 ng/mL
  half-life: 40.2 min
  Tmax: 60 min
[9]; 1 mg/kg s.c., compared to 10 mg/kg i.v. in same vehicle
  bioavailability: 117%
[9]; 5 mg/kg s.c.
  Cmax: 320 ng/mL
  half-life: 46.2 min
  Tmax: 60 min
[9]; 5 mg/kg s.c., compared to 10 mg/kg i.v. in same vehicle
  bioavailability: 113%
[9]; 10 mg/kg s.c.
  Cmax: 729 ng/mL
  half-life: 40.8 min
  Tmax: 30 min
[9]; 10 mg/kg s.c., compared to 10 mg/kg i.v. in same vehicle
  bioavailability: 108%
[9]; s.c. dosing in rats
  bioavailability: ~100%
[9]; male, 5 mg/kg s.c.
  AUC(0-inf): 604 ng·h/mL
[9]; male, 10 mg/kg s.c.
  AUC(0-inf): 1150 ng·h/mL
[9]; rats s.c., relatively low doses, single dose
  Linearity of kinetics (AUC versus dose): very nice linear kinetics
[10]
  IC50: > 100 µM
[11]
  fraction unbound at 2710 ng/ml: 0.747
[12]
  fraction unbound at 2710 ng/ml: 0.871
[13]; 1 mg/kg
  Average conc. of compound (I) at 5 min (max), total plasma: 631 ng/mL
[13]; 3 mg/kg
  Average conc. of compound (I) at 5 min (max), total plasma: 2120 ng/mL
[13]; 10 mg/kg
  Average conc. of compound (I) at 5 min (max), total plasma: 6560 ng/mL
[13]; 30 mg/kg
  Average conc. of compound (I) at 5 min (max), total plasma: 15000 ng/mL
[14]; rat, 2.5 mg/kg i.v., 2.5 mg/kg
  T½ i.v.: 36 min
[14]; rats, 10 mg/kg i.v.
  Tolerability of i.v. dose: *Rats could not tolerate 10 mg/kg i.v. because of exaggerated dopaminergic effects.
